Experimental data as given in paper PMC9688344, “[^225Ac]Ac-SibuDAB for Targeted Alpha Therapy of Prostate Cancer: Preclinical Evaluation and Comparison with [^225Ac]Ac-PSMA-617” (Cancers, 2022).
pKd: −log10 of the molar value. Several values for one entry are separate records, joined by “and”; a condition that tells them apart may be missing. Equal entries are not always repeated. Entries after “also recorded” stand apart in the source; their conditions may differ.

Assays:
[1] = PBS/n-octanol distribution coefficient (logD); type: physicochemical; details: PBS pH 7.4/n-octanol
[2] = tested on: PSMA-positive PC-3 PIP cells; experiment: Cell uptake and internalization; type: cell-based; details: 4 h incubation; % of total added activity
PSMA = biological target: T1, PSMA (Homo sapiens, UniProt Q04609); experiment: PSMA-binding affinity (KD values) on PC-3 PIP cells; details: on ice
T1 construct: expressed in transfected cells; host or cells: PC-3 PIP prostate cancer cells (transduced to express PSMA), provided by Prof; Dr. Martin Pomper, Johns Hopkins University
T1 sequence (Q04609 whole entry): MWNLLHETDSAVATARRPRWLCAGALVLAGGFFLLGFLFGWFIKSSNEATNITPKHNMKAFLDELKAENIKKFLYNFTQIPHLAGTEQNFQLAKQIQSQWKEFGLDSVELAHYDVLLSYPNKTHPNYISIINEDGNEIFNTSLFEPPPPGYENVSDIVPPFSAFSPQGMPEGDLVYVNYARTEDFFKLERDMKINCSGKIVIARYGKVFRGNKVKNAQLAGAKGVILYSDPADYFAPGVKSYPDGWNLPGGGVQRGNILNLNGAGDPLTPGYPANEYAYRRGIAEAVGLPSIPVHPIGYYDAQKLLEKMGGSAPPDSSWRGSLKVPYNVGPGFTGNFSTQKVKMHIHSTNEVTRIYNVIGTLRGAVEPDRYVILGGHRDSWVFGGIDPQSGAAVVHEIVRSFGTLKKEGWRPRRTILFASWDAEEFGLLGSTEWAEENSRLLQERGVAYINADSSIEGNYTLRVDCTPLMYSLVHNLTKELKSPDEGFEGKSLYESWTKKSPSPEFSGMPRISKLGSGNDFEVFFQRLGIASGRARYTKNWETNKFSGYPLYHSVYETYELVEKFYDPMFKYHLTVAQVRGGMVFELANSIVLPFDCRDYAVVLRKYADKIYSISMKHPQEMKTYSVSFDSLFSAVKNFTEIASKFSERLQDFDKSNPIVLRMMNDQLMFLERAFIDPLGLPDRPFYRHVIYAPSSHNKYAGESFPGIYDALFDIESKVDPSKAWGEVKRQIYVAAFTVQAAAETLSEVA

[3] = tested on: PSMA-positive PC-3 PIP tumor xenografts; experiment: Therapy study in PC-3 PIP tumor-bearing mice; type: in vivo, BALB/c nude mice
Method: Five days after subcutaneous inoculation of four groups of mice with either PC-3 PIP or PC-3 flu tumor cells on the right shoulder (4 × 10^6 cells in 100 μL HBSS), the mice were intravenously injected with either vehicle only (saline with 0.05% BSA, n = 6 and n = 4, respectively) or with 30 kBq [^225Ac]Ac-SibuDAB (1 nmol per mouse; n = 4 per group) diluted in vehicle (Table 1).
After tumor cell inoculation, mice bearing PC-3 PIP tumor xenografts were intravenously injected with vehicle only (n = 6) or with [^225Ac]Ac-SibuDAB or [^225Ac]Ac-PSMA-617, respectively, applied at 5 kBq or 10 kBq (1 nmol per mouse; n = 6 per group; Table 1). The control group consisted of mice from several studies (n = 12 mice) and the data from this group were published previously.
After administration of the radioligands, the mice were monitored over 8 weeks using the same measures as previously published by Umbricht et al.. The relative body mass was defined as [BMx/BM0], where BMx is the body mass in grams at a given Day x and BM0 is the body mass in grams at Day 0. The tumor dimension was determined by measuring the longest tumor axis (L) and its perpendicular axis (W) with a digital caliper. The tumor volume (V) was calculated according to the equation [V = 0.5 × (LW^2)]. The relative tumor volume was defined as [TVx/TV0], where TVx is the tumor volume in mm^3 at a given Day x, and TV0 is the tumor volume in mm^3 at Day 0. Endpoint criteria that required euthanasia were defined as (i) body mass loss of >15%, (ii) a tumor volume of >800 mm^3, (iii) a combination of body mass loss of >10% and a tumor volume of >700 mm^3 or, (iv) signs of unease and pain or a combination thereof using a scoring system as previously reported. The median survival of mice of each group was assessed with Kaplan–Meier curves. Potential early side effects for mice that survived until study end were determined based on blood chemistry and organ-to-brain mass ratios on Day 56 by comparison to values obtained from an additional group of therapy-naïve mice (n = 4) without tumors but of the same age (Supplementary Material: Section S9).
Table S10. Biodistribution data and tumor-to-background ratios obtained in PC3-PIP/flu tumor-bearing mice 48 h after injection of [225Ac]Ac-SibuDAB, [177Lu]Lu-SibuDAB, [225Ac]Ac-PSMA-617 or [177Lu]Lu-PSMA-617. Decay-corrected data of accumulated activity are shown as [% IA/g]-values, representing the average ± SD.
Biodistribution data at 48 h p.i.
1 Data of [177Lu]Lu-PSMA-617 were previously published by Benešová et al., Mol Pharm 2018 [2]; Copyright 2018, American Chemical Society.
Purpose: In order to determine the therapeutic efficacy of [225Ac]Ac-SibuDAB in com-parison to [225Ac]Ac-PSMA-617 as well as the 177Lu-labeled counterparts, therapy studies were conducted in PC-3 PIP xenograft-bearing BALB/c nude mice.
Methods: The methods of the therapy study to assess the therapeutic efficacy of [225Ac]Ac-SibuDAB are reported in the main manuscript. An additional group of mice was treated with 10 MBq (1 nmol) [177Lu]Lu-SibuDAB under the same experimental condi-tions. Data previously acquired by our group for mice treated with 5 MBq [177Lu]Lu-SibuDAB were published by Borgna & Deberle et al. and data of mice treated with 5 MBq or 10 MBq [177Lu]Lu-PSMA-617 were previously published by Tschan et al. and Umbricht et al., respectively.
Results: The assessment of the PSMA-specific therapeutic effect of [225Ac]Ac-SibuDAB as well as the comparison to [225Ac]Ac-PSMA-617 are described in the main ar-ticle. The body mass of effectively treated mice, in which the tumor disappeared entirely […]
tumor-bearing mice that were treated with only vehicle as well as for some mice that were treated with 5 kBq or 10 kBq [225Ac]Ac-PSMA-617 and experienced a relapse in tumor

[4] = tested on: PSMA-negative PC-3 flu cells; experiment: Cell uptake in PSMA-negative cells; type: cell-based

Row | Structure (SMILES) | logD value [1] | Cell uptake [2] | Internalization (internalized fraction) [2] | pKd (PSMA) | Day of first endpoint ([3]; 5 kBq) | Day of last endpoint ([3]; 5 kBq) | Median Survival ([3]; 5 kBq) | Number of Mice Alive on Day 56 ([3]; 5 kBq) | Tumor response ([3]; 5 kBq) | Day of first endpoint ([3]; 10 kBq) | Day of last endpoint ([3]; 10 kBq) | Median Survival ([3]; 10 kBq) | Number of Mice Alive on Day 56 ([3]; 10 kBq) | Cell uptake [4] | further results
1 | O=C([O-])CN1CCN(CC(=O)[O-])CCN(CC(=O)NCC2CCC(C(=O)NC(Cc3ccc4ccccc4c3)C(=O)NCCCCC(NC(=O)NC(CCC(=O)O)C(=O)O)C(=O)O)CC2)CCN(CC(=O)[O-])CC1.[225Ac+3] (stereo not shown) [[^225Ac]Ac-PSMA-617] | ≤ −3.9 | 63 ± 5% | 19 ± 3% | 7.96 | 42 | 56 | 46 days | one out of six and 1/6 | tumor regrowth was observed | 38 | 56 | >56 ^3 days | four out of six and 4/6 | < 1% | –
2 | CC(C)Cc1ccc(C(C)C(=O)NC(CCN)C(=O)NCCCCC(NC(=O)CN2CCN(CC(=O)[O-])CCN(CC(=O)[O-])CCN(CC(=O)[O-])CC2)C(=O)NCC2CCC(C(=O)NC(Cc3ccc4ccccc4c3)C(=O)NCCCCC(NC(=O)NC(CCC(=O)O)C(=O)O)C(=O)O)CC2)cc1.[225Ac+3] (stereo not shown) [[^225Ac]Ac-SibuDAB] | −2.5 ± 0.1 | 59 ± 1% | 25 ± 5% | 7.77 | 56 ^2 | 56 ^2 | >56 ^3 days | 6/6 | sufficient to eradicate the tumors; also recorded: effectively eradicated tumors of all mice; also recorded: no tumors were visible at Day 56 | 56 ^2 | 56 ^2 | >56 ^3 days | 6/6 | < 1% | Tumor response ([3]; 5 kBq, listed as [225Ac]Ac-SibuDAB): no tumors were visible 56 days after; also recorded: no tumor visible on Day 56; Tumor response ([3]; 10 kBq): effectively eradicated tumors of all mice; Tumor response ([3]; 10 kBq, listed as [225Ac]Ac-SibuDAB): no tumor visible on Day 56; Day of first endpoint ([3]; 30 kBq): 56 ^2; Day of last endpoint ([3]; 30 kBq): 56 ^2; Median Survival ([3]; 30 kBq): >56 ^3 days; Number of Mice Alive on Day 56 ([3]; 30 kBq): 4/4; Tumor response ([3]; 30 kBq): eradicated PSMA-positive PC-3 PIP tumors entirely; Tumor response ([3]; 30 kBq, listed as [225Ac]Ac-SibuDAB): no tumor visible on Day 56
